Assay results reported in the supplement of paper PMC10307832.

How the values were obtained:
Experiment in all cases: relative viability (nuclei count vs DMSO), 5 days (fraction); higher = more cells survive
Avagacestat + Bortezomib = compound: NC(=O)[C@@H](CCC(F)(F)F)N(Cc1ccc(-c2ncon2)cc1F)S(=O)(=O)c1ccc(Cl)cc1 [Avagacestat] + CC(C)C[C@H](NC(=O)[C@H](Cc1ccccc1)NC(=O)c1cnccn1)B(O)O [Bortezomib] (partner 0.002 µM)
Method in brief: (§1)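 Lung cancer cell lines were pin-tool dosed in 1536-well plates on the day after seeding, with either a lone drug or a fixed anchor-drug dose plus five library-drug doses (not always all listed) in √10 steps. Nuclei were counted on 4× images after 5 days. Relative viability is the ratio of treated-well to vehicle-well nuclei counts, with each value a median of duplicate plates.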

Avagacestat + Lapatinib = compound: NC(=O)[C@@H](CCC(F)(F)F)N(Cc1ccc(-c2ncon2)cc1F)S(=O)(=O)c1ccc(Cl)cc1 [Avagacestat] + CS(=O)(=O)CCNCc1ccc(-c2ccc3ncnc(Nc4ccc(OCc5cccc(F)c5)c(Cl)c4)c3c2)o1 [Lapatinib] (partner 2 µM)
Method in brief: as §1

Avagacestat + AZD7762 = compound: NC(=O)[C@@H](CCC(F)(F)F)N(Cc1ccc(-c2ncon2)cc1F)S(=O)(=O)c1ccc(Cl)cc1 [Avagacestat] + NC(=O)Nc1cc(-c2cccc(F)c2)sc1C(=O)N[C@H]1CCCNC1 [AZD7762] (partner 0.2 µM)
Method in brief: as §1

Avagacestat + Decitabine = compound: NC(=O)[C@@H](CCC(F)(F)F)N(Cc1ccc(-c2ncon2)cc1F)S(=O)(=O)c1ccc(Cl)cc1 [Avagacestat] + Nc1ncn([C@H]2C[C@H](O)[C@@H](CO)O2)c(=O)n1 [Decitabine] (partner 2 µM)
Method in brief: as §1

NCI-H727
relative viability (Avagacestat + Bortezomib; first compound 0.08 µM): 0.956 | relative viability (Avagacestat + Bortezomib; first compound 0.253 µM): 0.927 | relative viability (Avagacestat + Bortezomib; first compound 0.8 µM): 1.04 | relative viability (Avagacestat + Bortezomib; first compound 2.53 µM): 0.981 | relative viability (Avagacestat + Bortezomib; first compound 8 µM): 0.828 | relative viability (Avagacestat + Lapatinib; first compound 0.08 µM): 0.939 | relative viability (Avagacestat + Lapatinib; first compound 0.253 µM): 0.875 | relative viability (Avagacestat + Lapatinib; first compound 0.8 µM): 1.19 | relative viability (Avagacestat + Lapatinib; first compound 2.53 µM): 0.876 | relative viability (Avagacestat + Lapatinib; first compound 8 µM): 0.671 | relative viability (Avagacestat + AZD7762; first compound 0.08 µM): 0.678 | relative viability (Avagacestat + AZD7762; first compound 0.253 µM): 0.651 | relative viability (Avagacestat + AZD7762; first compound 0.8 µM): 0.78 | relative viability (Avagacestat + AZD7762; first compound 2.53 µM): 0.651 | relative viability (Avagacestat + AZD7762; first compound 8 µM): 0.784 | relative viability (Avagacestat + Decitabine; first compound 0.08 µM): 0.889 | relative viability (Avagacestat + Decitabine; first compound 0.253 µM): 0.815 | relative viability (Avagacestat + Decitabine; first compound 0.8 µM): 1.06 | relative viability (Avagacestat + Decitabine; first compound 2.53 µM): 0.836 | relative viability (Avagacestat + Decitabine; first compound 8 µM): 0.875

NCI-H838
relative viability (Avagacestat + Bortezomib; first compound 0.08 µM): 0.977 | relative viability (Avagacestat + Bortezomib; first compound 0.253 µM): 0.922 | relative viability (Avagacestat + Bortezomib; first compound 0.8 µM): 0.93 | relative viability (Avagacestat + Bortezomib; first compound 2.53 µM): 0.863 | relative viability (Avagacestat + Bortezomib; first compound 8 µM): 0.502 | relative viability (Avagacestat + Lapatinib; first compound 0.08 µM): 1.5 | relative viability (Avagacestat + Lapatinib; first compound 0.253 µM): 1.04 | relative viability (Avagacestat + Lapatinib; first compound 0.8 µM): 1.13 | relative viability (Avagacestat + Lapatinib; first compound 2.53 µM): 0.865 | relative viability (Avagacestat + Lapatinib; first compound 8 µM): 0.835 | relative viability (Avagacestat + AZD7762; first compound 0.08 µM): 0.988 | relative viability (Avagacestat + AZD7762; first compound 0.253 µM): 0.971 | relative viability (Avagacestat + AZD7762; first compound 0.8 µM): 0.997 | relative viability (Avagacestat + AZD7762; first compound 2.53 µM): 0.857 | relative viability (Avagacestat + AZD7762; first compound 8 µM): 0.861 | relative viability (Avagacestat + Decitabine; first compound 0.08 µM): 0.483 | relative viability (Avagacestat + Decitabine; first compound 0.253 µM): 0.48 | relative viability (Avagacestat + Decitabine; first compound 0.8 µM): 0.466 | relative viability (Avagacestat + Decitabine; first compound 2.53 µM): 0.471 | relative viability (Avagacestat + Decitabine; first compound 8 µM): 0.442

NCI-H1355
relative viability (Avagacestat + Bortezomib; first compound 0.08 µM): 1.37 | relative viability (Avagacestat + Bortezomib; first compound 0.253 µM): 1.38 | relative viability (Avagacestat + Bortezomib; first compound 0.8 µM): 1.33 | relative viability (Avagacestat + Bortezomib; first compound 2.53 µM): 1.14 | relative viability (Avagacestat + Bortezomib; first compound 8 µM): 1.1 | relative viability (Avagacestat + Lapatinib; first compound 0.08 µM): 1.24 | relative viability (Avagacestat + Lapatinib; first compound 0.253 µM): 1.15 | relative viability (Avagacestat + Lapatinib; first compound 0.8 µM): 1.1 | relative viability (Avagacestat + Lapatinib; first compound 2.53 µM): 0.926 | relative viability (Avagacestat + Lapatinib; first compound 8 µM): 0.871 | relative viability (Avagacestat + AZD7762; first compound 0.08 µM): 0.98 | relative viability (Avagacestat + AZD7762; first compound 0.253 µM): 0.777 | relative viability (Avagacestat + AZD7762; first compound 0.8 µM): 0.809 | relative viability (Avagacestat + AZD7762; first compound 2.53 µM): 0.654 | relative viability (Avagacestat + AZD7762; first compound 8 µM): 0.699 | relative viability (Avagacestat + Decitabine; first compound 0.08 µM): 0.357 | relative viability (Avagacestat + Decitabine; first compound 0.253 µM): 0.329 | relative viability (Avagacestat + Decitabine; first compound 0.8 µM): 0.371 | relative viability (Avagacestat + Decitabine; first compound 2.53 µM): 0.344 | relative viability (Avagacestat + Decitabine; first compound 8 µM): 0.309

NCI-H1437
relative viability (Avagacestat + Bortezomib; first compound 0.08 µM): 0.602 | relative viability (Avagacestat + Bortezomib; first compound 0.253 µM): 0.69 | relative viability (Avagacestat + Bortezomib; first compound 0.8 µM): 0.519 | relative viability (Avagacestat + Bortezomib; first compound 2.53 µM): 0.379 | relative viability (Avagacestat + Bortezomib; first compound 8 µM): 0.282 | relative viability (Avagacestat + Lapatinib; first compound 0.08 µM): 1.07 | relative viability (Avagacestat + Lapatinib; first compound 0.253 µM): 0.972 | relative viability (Avagacestat + Lapatinib; first compound 0.8 µM): 0.878 | relative viability (Avagacestat + Lapatinib; first compound 2.53 µM): 0.69 | relative viability (Avagacestat + Lapatinib; first compound 8 µM): 0.602 | relative viability (Avagacestat + AZD7762; first compound 0.08 µM): 1.16 | relative viability (Avagacestat + AZD7762; first compound 0.253 µM): 1.15 | relative viability (Avagacestat + AZD7762; first compound 0.8 µM): 1.02 | relative viability (Avagacestat + AZD7762; first compound 2.53 µM): 1.09 | relative viability (Avagacestat + AZD7762; first compound 8 µM): 0.906 | relative viability (Avagacestat + Decitabine; first compound 0.08 µM): 0.643 | relative viability (Avagacestat + Decitabine; first compound 0.253 µM): 0.668 | relative viability (Avagacestat + Decitabine; first compound 0.8 µM): 0.654 | relative viability (Avagacestat + Decitabine; first compound 2.53 µM): 0.598 | relative viability (Avagacestat + Decitabine; first compound 8 µM): 0.628

NCI-H1651
relative viability (Avagacestat + Bortezomib; first compound 0.08 µM): 1.06 | relative viability (Avagacestat + Bortezomib; first compound 0.253 µM): 1.07 | relative viability (Avagacestat + Bortezomib; first compound 0.8 µM): 1.05 | relative viability (Avagacestat + Bortezomib; first compound 2.53 µM): 0.944 | relative viability (Avagacestat + Bortezomib; first compound 8 µM): 0.933 | relative viability (Avagacestat + Lapatinib; first compound 0.08 µM): 1.11 | relative viability (Avagacestat + Lapatinib; first compound 0.253 µM): 1.03 | relative viability (Avagacestat + Lapatinib; first compound 0.8 µM): 0.883 | relative viability (Avagacestat + Lapatinib; first compound 2.53 µM): 0.762 | relative viability (Avagacestat + Lapatinib; first compound 8 µM): 0.672 | relative viability (Avagacestat + AZD7762; first compound 0.08 µM): 0.531 | relative viability (Avagacestat + AZD7762; first compound 0.253 µM): 0.538 | relative viability (Avagacestat + AZD7762; first compound 0.8 µM): 0.561 | relative viability (Avagacestat + AZD7762; first compound 2.53 µM): 0.441 | relative viability (Avagacestat + AZD7762; first compound 8 µM): 0.36 | relative viability (Avagacestat + Decitabine; first compound 0.08 µM): 0.636 | relative viability (Avagacestat + Decitabine; first compound 0.253 µM): 0.665 | relative viability (Avagacestat + Decitabine; first compound 0.8 µM): 0.734 | relative viability (Avagacestat + Decitabine; first compound 2.53 µM): 0.611 | relative viability (Avagacestat + Decitabine; first compound 8 µM): 0.607
